Data: patent US11149046B2, “Antibacterial sideromycins” (Hsiri Therapeutics, Inc., priority 2014, dated 2021)
Converted amounts (≈) assume the structure as drawn. “And” between values parts separate entries of the source, which are not always exact repeats. Equal values may be shown once. “Also recorded” adds a separate entry of the source. Read-outs that look alike come from different tables or passages of the source.

How the values were obtained:
P. aeruginosa KW799/wt = test: MIC determination; format: cell-based, Pseudomonas aeruginosa; settings: for MIC: Pseudomonas aeruginosa, KW799/WT
Description: (§1) Table 3 that was included in the first Example 4 section provides antibacterial data for the first synthetic sideromycins we prepared and studied. The second Example 4 section elaborated and expanded on that data with inclusion of representative antibacterial data in the text and associated pictures of Petri dish assays. MIC (minimum inhibition concentration) is given in μM and AD (agar diffusion zones of inhibition are given in mm from Kirby-Bauer Petri dish growth inhibition studies).

[1] = tested on: P. aeruginosa KW799/61 (permeability mutant); test: microbe, parasite or virus in culture; format: cell-based, Pseudomonas aeruginosa
Description: (§2) MIC (minimum inhibition concentration) is given in μM and AD (agar diffusion zones of inhibition are given in mm from Kirby-Bauer Petri dish growth inhibition studies).

A. baumannii ATCC 17961 = test: MIC determination; format: cell-based, Acinetobacter baumannii
Description: as §1

E. coli DC0 [2] = test: MIC determination; format: cell-based; settings: for MIC: Escherichia coli
Description: as §1

[3] = tested on: E. coli DC2 (permeability mutant); test: MIC determination; format: cell-based
Description: as §1

M. vaccae IMET-10760 = test: MIC determination; format: cell-based; settings: iron deficient media
M. luteus ATCC-10240 = test: MIC determination; format: cell-based; settings: iron deficient media
B. subtilis ATCC-6633 = test: MIC determination; format: cell-based; settings: iron deficient media
S. aureus SG511 = test: MIC determination; format: cell-based; settings: iron deficient media
Pa4 = test: MIC determination; format: cell-based, Pseudomonas aeruginosa; settings: Pseudomonas aeruginosa; Table 5
Description: as §1

Pa6 = test: MIC determination; format: cell-based, Pseudomonas aeruginosa; settings: Pseudomonas aeruginosa; Table 5; read-out: MIC
Description: as §2

[4] = tested on: Pa-Da-1304 CF patient isolate; test: MIC determination; format: cell-based, Pseudomonas aeruginosa; settings: Pseudomonas aeruginosa
Description: as §2
We obtained a clinical isolate of Pseudomonas from a cystic fibrosis patient.

[5] = tested on: Pseudomonas aeruginosa 01 (Pa01); test: MIC determination; format: cell-based; settings: Pseudomonas aeruginosa; Table 5; read-out: MIC
Description: as §1

E. coli DC0 [6] = test: Agar diffusion (Kirby-Bauer) assay; format: cell-based; settings: Table 5
Description: as §1

E. coli DC2 = test: Agar diffusion (Kirby-Bauer) assay; format: cell-based; settings: Table 5
Description: as §1

[7] = tested on: Pseudomonas aeruginosa KW799/wt; test: Agar diffusion (Kirby-Bauer) assay; format: cell-based; settings: wild type Pseudomonas; FIG. 8, 9, 12; listed as YML-1-18
Description: as §1

[8] = tested on: Acinetobacter baumannii ATCC 17961; test: Agar diffusion (Kirby-Bauer) assay, with and without hydrogel; format: cell-based; settings: Acinetobacter; FIG. 8, 9, 10
Description: as §1
We investigated whether the sideromycin absorbed in the gel be able to diffuse out of the gel and into the agar to effect antibacterial growth. As a control, the sideromycin alone, without gel, was added in a separate 9 mm well, as usual.
The second question was whether the sideromycin continue to be released and be able to effect bacterial growth inhibition over extended periods. Thus, additional identical agar plates were prepared and stored at 4° C. for 24, 48 and 72 hours to allow diffusion of the sideromycin (control and gel forms) into the agar before allowing the bacteria to grow in an incubator. Then after each time period, the Petri dishes were incubated at 37° C. for 20 hours to promote bacteria growth in the agar. […] The study has been extended to as long as 168 hours (one week) with retention of antibiotic effectiveness.

[9] = iron deficient media, read-out: MIC in Fe(−)MHII Media

CC(=O)Oc1cccc(C(=O)NCCCCN(CC(=O)NC(C(=O)NC2C(=O)N3C2SC(C)(C)C3C(=O)[O-])c2ccccc2)C(=O)c2cccc(OC(C)=O)c2OC(C)=O)c1OC(C)=O.[Na+] (stereo not drawn) [HKI-9924154]
MIC in Fe(−)MHII Media (P. aeruginosa KW799/wt; iron deficient media): 0.04 to 0.052 µg/mL | MIC in Fe(−)MHII Media ([1]; iron deficient media): 0.13 µg/mL | MIC in Fe(−)MHII Media (A. baumannii ATCC 17961; iron deficient media): 0.313 µg/mL | MIC (A. baumannii ATCC 17961; [9]): 0.34 µM | MIC (A. baumannii ATCC 17961; read-out: MIC): 0.34 µM | MIC in Fe(−)MHII Media (E. coli DC0 [2]; iron deficient media): <0.005 µg/mL | MIC in Fe(−)MHII Media ([3]; iron deficient media): <0.005 µg/mL | MIC in Fe(−)MHII Media (M. vaccae IMET-10760): >10 µg/mL | MIC in Fe(−)MHII Media (M. luteus ATCC-10240): >10 µg/mL | MIC in Fe(−)MHII Media (B. subtilis ATCC-6633): >10 µg/mL | MIC in Fe(−)MHII Media (S. aureus SG511): >10 µg/mL

CC(=O)Oc1cccc(C(=O)NCCCCN(CC(=O)N[C@@H](C(=O)N[C@@H]2C(=O)N3C2SC(C)(C)[C@@H]3C(=O)O)c2ccccc2)C(=O)c2cccc(OC(C)=O)c2OC(C)=O)c1OC(C)=O (stereo partly drawn) [YML-I-18]
MIC (P. aeruginosa KW799/wt; Table 5, read-out: MIC): 0.0156 to 0.0313 µM (≈ 0.0143 to 0.0287 µg/mL) | MIC (P. aeruginosa KW799/wt; [9]): 0.0156 µM (≈ 0.0143 µg/mL) | MIC in Fe(−)MHII Media (P. aeruginosa KW799/wt; iron deficient media, listed as HKI-9924116): (0.0156 μM | increase in antibiotic activity over ampicillin (P. aeruginosa KW799/wt; several strains of P. aeruginosas (entries 1 and 2, Table 3)): 16000 fold | MIC (Pa4): 0.03 µM (≈ 0.0275 µg/mL) | MIC ([1]; Pseudomonas aeruginosa, read-out: MIC in Fe(−)MHII Media): 0.052 µg/mL (≈ 0.0566 µM) | MIC (Pa6): > 100 µM | MIC ([4]; Table 5): 0.4 to 0.75 µM (≈ 0.367 to 0.688 µg/mL) | MIC ([4]; clinical isolate from a cystic fibrosis patient): 0.4 to 0.75 µM (≈ 0.367 to 0.688 µg/mL) | MIC (A. baumannii ATCC 17961; Acinetobacter baumannii, ATCC17961, iron deficient media, read-out: MIC in Fe(−)MHII Media): 0.313 µg/mL | MIC (A. baumannii ATCC 17961; Acinetobacter baumannii, ATCC17961, text, read-out: MIC): 0.156 µg/mL to 0.313 µg/mL and 0.34 µM | MIC (A. baumannii ATCC 17961; iron deficient media, listed as HKI-9924116, read-out: MIC in Fe(−)MHII Media): 0.34 µM | MIC (A. baumannii ATCC 17961; iron deficient media, listed as YML-1-18, read-out: MIC in Fe(−)MHII Media): 0.156 µM | MIC (E. coli DC0 [2]; DC0, iron deficient media, read-out: MIC in Fe(−)MHII Media): < 0.005 µg/mL | MIC (E. coli DC0 [2]; representative strains of E. coli (entries 4-5, Table 3: DC0, DC2), read-out: MIC): < 0.005 µg/mL | MIC ([3]; Escherichia coli, read-out: MIC in Fe(−)MHII Media): < 0.005 µg/mL | MIC [5]: 0.0156 µM (≈ 0.0143 µg/mL) | MIC (M. vaccae IMET-10760; Mycolicibacterium vaccae, IMET10760, read-out: MIC in Fe(−)MHII Media): > 10 µg/mL | MIC (M. luteus ATCC-10240; Micrococcus luteus, ATCC10240, read-out: MIC in Fe(−)MHII Media): > 10 µg/mL | MIC (B. subtilis ATCC-6633; Bacillus subtilis, ATCC6633, read-out: MIC in Fe(−)MHII Media): > 10 µg/mL | MIC (S. aureus SG511; Staphylococcus aureus, SG511, read-out: MIC in Fe(−)MHII Media): > 10 µg/mL | AD = agar diffusion inhibition zones (E. coli DC0 [6]): (AD = 32) mm | AD = agar diffusion inhibition zones (E. coli DC2): (AD = 40) mm | zones of inhibition (in words) [7]: impressive zones of inhibition; also recorded: potently active | zones of inhibition (in words) [8]: impressive zones of inhibition
